Measured values published in PMC11859928, “Design, Synthesis, and Antiproliferative Activity of Novel Indole/1,2,4-Triazole Hybrids as Tubulin Polymerization Inhibitors” (Pharmaceuticals, 2025).
Read-outs that look alike come from different tables or passages of the source.

Columns and labels:
ACHN = experiment: NCI one-dose assay; format: cell-based; conditions: Homo sapiens, Renal cancer, read-out: Cell growth inhibition %
BT-549 = experiment: NCI one-dose assay; format: cell-based; conditions: Homo sapiens, BT-549, Breast cancer, read-out: Cell growth inhibition %
DU-145 = experiment: NCI one-dose assay; format: cell-based; conditions: Homo sapiens, DU-145, Prostate cancer, read-out: Cell growth inhibition %
IGROV1 = experiment: NCI one-dose assay; format: cell-based; conditions: Homo sapiens, IGROV-1, IGROV1, Ovarian cancer, read-out: Cell growth inhibition %
LOX IMVI = experiment: NCI one-dose assay; format: cell-based; conditions: Homo sapiens, Melanoma, read-out: Cell growth inhibition %
MALME-3M = experiment: NCI one-dose assay; format: cell-based; conditions: Homo sapiens, Melanoma, read-out: Cell growth inhibition %
MCF7 = experiment: NCI one-dose assay; format: cell-based; conditions: Homo sapiens, MCF7, Breast cancer, read-out: Cell growth inhibition %
MDA-MB-468 [1] = experiment: NCI one-dose assay; format: cell-based; conditions: Homo sapiens, MDA-MB-468, Breast cancer, read-out: Cell growth inhibition %
NCI-H226 = experiment: NCI one-dose assay; format: cell-based; conditions: Homo sapiens, NCI-H226, Non-small cell lung cancer, read-out: Cell growth inhibition %
NCI-H23 = experiment: NCI one-dose assay; format: cell-based; conditions: Homo sapiens, NCI-H23, Non-small cell lung cancer, read-out: Cell growth inhibition %
NCI-H460 [2] = experiment: NCI one-dose assay; format: cell-based; conditions: Homo sapiens, NCI-H460, Non-small cell lung cancer, read-out: Cell growth inhibition %
NCI-H522 = experiment: NCI one-dose assay; format: cell-based; conditions: Homo sapiens, NCI-H522, Non-small cell lung cancer, read-out: Cell growth inhibition %
NCI/ADR-RES = experiment: NCI one-dose assay; format: cell-based; conditions: Homo sapiens, Ovarian cancer, read-out: Cell growth inhibition %
OVCAR-4 [3] = experiment: NCI one-dose assay; format: cell-based; conditions: Homo sapiens, OVCAR-4, Ovarian cancer, read-out: Cell growth inhibition %
OVCAR-5 = experiment: NCI one-dose assay; format: cell-based; conditions: Homo sapiens, OVCAR-5, Ovarian cancer, read-out: Cell growth inhibition %
PC-3 = experiment: NCI one-dose assay; format: cell-based; conditions: Homo sapiens, PC-3, Prostate cancer, read-out: Cell growth inhibition %
SK-MEL-28 = experiment: NCI one-dose assay; format: cell-based; conditions: Homo sapiens, SK-MEL-28, Melanoma, read-out: Cell growth inhibition %
SK-OV-3 = experiment: NCI one-dose assay; format: cell-based; conditions: Homo sapiens, SK-OV-3, Ovarian cancer, read-out: Cell growth inhibition %
SN12C = experiment: NCI one-dose assay; format: cell-based; conditions: Homo sapiens, Renal cancer, read-out: Cell growth inhibition %
SNB-19 = experiment: NCI one-dose assay; format: cell-based; conditions: Homo sapiens, SNB-19, CNS cancer, read-out: Cell growth inhibition %
SR = experiment: NCI one-dose assay; format: cell-based; conditions: Homo sapiens, Leukemia, read-out: Cell growth inhibition %
TK-10 = experiment: NCI one-dose assay; format: cell-based; conditions: Homo sapiens, TK-10, Renal cancer, read-out: Cell growth inhibition %
A498 = experiment: NCI one-dose assay; format: cell-based, human; conditions: for inhibition at 10 µM: Homo sapiens, A498, A498, Renal cancer, read-out: Cell growth inhibition %
HOP-62 = experiment: NCI five-dose assay; format: cell-based, human; conditions: HOP-62, Non-small cell lung cancer; for GI50: read-out: GI50 Conc. per Cell Lines
NCI-H460 [4] = experiment: NCI five-dose assay; format: cell-based, human; conditions: NCI-H460, Non-small cell lung cancer; for CC50 / GI50: Homo sapiens; for CC50: 48 h, read-out: LC50 (the source's name); for GI50: read-out: GI50 Conc. per Cell Lines
COLO205 = experiment: NCI five-dose assay; format: cell-based, human; conditions: COLO205, Colon cancer; for CC50 / GI50: Homo sapiens, COLO 205; for CC50: 48 h, read-out: LC50 (the source's name); for GI50: read-out: GI50 Conc. per Cell Lines
HT29 = experiment: NCI five-dose assay; format: cell-based, human; conditions: HT29, Colon cancer; for CC50 / GI50: Homo sapiens, HT-29; for CC50: 48 h, read-out: LC50 (the source's name); for GI50: read-out: GI50 Conc. per Cell Lines
OVCAR-4 [5] = experiment: NCI five-dose assay; format: cell-based, human; conditions: OVCAR-4, Ovarian cancer; for GI50: read-out: GI50 Conc. per Cell Lines
MDA-MB-468 [6] = experiment: NCI five-dose assay; format: cell-based, human; conditions: MDA-MB-468, Breast cancer; for LC50 / GI50: Homo sapiens; for LC50: 48 h; for GI50: read-out: GI50 Conc. per Cell Lines
[7] = test system: Non-small cell lung cancer subpanel; experiment: NCI five-dose assay, subpanel mean; format: cell-based, human; conditions: for GI50: Homo sapiens, average sensitivity of all cell lines of the Non-small cell lung cancer subpanel, read-out: GI50 Subpanel MID b; for GI50 Selectivity Ratio (MID a/MID b): Non-small cell lung cancer subpanel
NCI 60 cell lines = experiment: NCI one-dose assay, full panel; format: cell-based, human; conditions: Homo sapiens, 60 cell, read-out: cell growth inhibition percentage, range

Cc1ccc(C(=O)CSc2nnc(-c3c[nH]c4ccccc34)n2-c2ccccc2)cc1 [Compound 6h, 2-((5-(1H-Indol-3-yl)-4-phenyl-4H-1,2,4-triazol-3-yl)thio)-1-(p-tolyl)ethenone]
inhibition at 10 µM (ACHN): 79.6% | inhibition at 10 µM (BT-549): 77.6% | inhibition at 10 µM (DU-145): 21.1% | inhibition at 10 µM (IGROV1): 75.8% | inhibition at 10 µM (LOX IMVI): 120% | inhibition at 10 µM (MALME-3M): 64.8% | inhibition at 10 µM (MCF7): 87.5% | inhibition at 10 µM (MDA-MB-468 [1]): 52% | inhibition at 10 µM (NCI-H226): 141% | inhibition at 10 µM (NCI-H23): 82.7% | inhibition at 10 µM (NCI-H460 [2]): 70.7% | inhibition at 10 µM (NCI-H522): 98.6% | inhibition at 10 µM (NCI/ADR-RES): 128% | inhibition at 10 µM (OVCAR-4 [3]): 116% | inhibition at 10 µM (OVCAR-5): 87% | inhibition at 10 µM (PC-3): 57% | inhibition at 10 µM (SK-MEL-28): 51% | inhibition at 10 µM (SK-OV-3): 76% | inhibition at 10 µM (SN12C): 75.1% | inhibition at 10 µM (SNB-19): 80.3% | inhibition at 10 µM (SR): 47% | inhibition at 10 µM (TK-10): 102% | inhibition at 10 µM (A498): 14.2% | TGI Conc. per Cell Lines (HOP-62): 35.90 µM | CC50 (HOP-62; Homo sapiens, 48 h, read-out: LC50 (the source's name)): 80 µM | GI50 (HOP-62; Homo sapiens): 16.1 µM | CC50 (NCI-H460 [4]): 63.5 µM | GI50 (NCI-H460 [4]): 15.2 µM | TGI Conc. per Cell Lines (NCI-H460 [4]): 31.00 µM | TGI Conc. per Cell Lines (COLO205): >100 µM | CC50 (COLO205): > 100 µM | GI50 (COLO205): 34.4 µM | TGI Conc. per Cell Lines (HT29): 50.50 µM | CC50 (HT29): > 100 µM | GI50 (HT29): 15.6 µM | LC50 (OVCAR-4 [5]; Homo sapiens, 48 h): > 100 µM | GI50 (OVCAR-4 [5]; Homo sapiens): 14.5 µM | TGI Conc. per Cell Lines (OVCAR-4 [5]): 41.50 µM | LC50 (MDA-MB-468 [6]): 81.3 µM | GI50 (MDA-MB-468 [6]): 12.8 µM | GI50 [7]: 14.9 µM | GI50 Selectivity Ratio (MID a/MID b) [7]: 1.29 | inhibition at 10 µM (NCI 60 cell lines; ten cancer cell lines with complete cell death): 101 to 141% | inhibition at 10 µM (NCI 60 cell lines; twenty-five cell lines): 67 to 99%

O/N=C(\CSc1nnc(-c2c[nH]c3ccccc23)n1-c1ccccc1)c1ccc(Br)cc1 [Compound 7i, (Z)-2-((5-(1H-Indol-3-yl)-4-phenyl-4H-1,2,4-triazol-3-yl)thio)-1-(4-bromophenyl) Ethanone Oxime]
inhibition at 10 µM (ACHN): 184% | inhibition at 10 µM (BT-549): 173% | inhibition at 10 µM (DU-145): 188% | inhibition at 10 µM (IGROV1): 165% | inhibition at 10 µM (LOX IMVI): 187% | inhibition at 10 µM (MALME-3M): 110% | inhibition at 10 µM (MCF7): 143% | inhibition at 10 µM (MDA-MB-468 [1]): 195% | inhibition at 10 µM (NCI-H226): 93.7% | inhibition at 10 µM (NCI-H23): 85.9% | inhibition at 10 µM (NCI-H460 [2]): 122% | inhibition at 10 µM (NCI-H522): 130% | inhibition at 10 µM (NCI/ADR-RES): 174% | inhibition at 10 µM (OVCAR-4 [3]): 183% | inhibition at 10 µM (OVCAR-5): 183% | inhibition at 10 µM (PC-3): 164% | inhibition at 10 µM (SK-MEL-28): 126% | inhibition at 10 µM (SK-OV-3): 150% | inhibition at 10 µM (SN12C): 177% | inhibition at 10 µM (SNB-19): 109% | inhibition at 10 µM (SR): 98.7% | inhibition at 10 µM (TK-10): 183% | Cell growth inhibition % (A498; A498, Renal cancer, 10 µM): 37.85% | inhibition at 10 µM (A498): 38% | TGI Conc. per Cell Lines (HOP-62): 3.98 µM | GI50 (HOP-62; Homo sapiens): 1.86 µM | CC50 (NCI-H460 [4]): 68.4 µM | GI50 (NCI-H460 [4]): 3.53 µM | TGI Conc. per Cell Lines (NCI-H460 [4]): 12.90 µM | TGI Conc. per Cell Lines (COLO205): 16.60 µM | CC50 (COLO205): > 100 µM | GI50 (COLO205): 3.8 µM | TGI Conc. per Cell Lines (HT29): 5.03 µM | CC50 (HT29): 17.8 µM | GI50 (HT29): 2.23 µM | GI50 (OVCAR-4 [5]; Homo sapiens): 2.14 µM | TGI Conc. per Cell Lines (OVCAR-4 [5]): 4.57 µM | LC50 (MDA-MB-468 [6]): 6.32 µM | GI50 (MDA-MB-468 [6]): 1.72 µM | TGI Conc. per Cell Lines (MDA-MB-468 [6]): 3.30 µM | GI50 [7]: 3.23 µM | GI50 Selectivity Ratio (MID a/MID b) [7]: 0.87 | inhibition at 10 µM (NCI 60 cell lines; eight cell lines): 86 to 99% | inhibition at 10 µM (NCI 60 cell lines; forty-nine cell lines with complete cell death): 106 to 200%
